The record followed here is patent US20230407243A1, “GENETIC PLATFORM TO INVESTIGATE THE FUNCTIONS OF BACTERIAL DRUG EFFLUX PUMPS” (priority 2022, published 2023).

Holding throughout (type): cell-based, Escherichia coli
In experiment [1] the test system is EKO-35 araC::emrAB Pore. The experiment is described as follows: MIC susceptibility profiling, porinated efflux platform. Conditions: Escherichia coli; EKO-35 araC::emrAB Pore; technical duplicate; read-out: Minimum inhibitory concentration. As to the method: (§1) For genomic integration of the pore, the fhuA ΔC/Δ4L gene and the adjacent gentamicin resistance cassette were amplified using a high-fidelity polymerase and the fhuA_40_Up/gImS_3680_Low primers (Table 4). Integration of the pore gene was performed as described above. The pore gene was introduced into the intergenic region between the glmS and pstS genes, with gene expression under the control of a constitutive promoter (Kearse, M. et al., 2012). Genomic integrations were verified using PCR (Primers: pstS_520_Up/glmS_3680_Low, Table 4). Successful integrations were transformed with pCP20 to remove the gentamicin resistance cassette as previously described. Activity of the pore was confirmed through susceptibility testing with the large antibiotic vancomycin prior to phenotypic profiling and further susceptibility testing.
(§2) Single colonies were used to inoculate 3 mL of LB followed by incubation at 37° C. for 18 h with aeration at 220 rpm. The bacterial cells were harvested by centrifugation and resuspended in phosphate buffered saline (PBS) ([pH 7.4], 137 mM NaCl (Bioshop), 2.7 mM KCl (Bioshop), 10 mM Na2PO4 (Bioshop) and 1.8 mM K2PO4) to an OD600 nm˜1.0, followed by 1/2000 dilution into MHB II.
(§3) To a 384-well microtiter plate (Corning, untreated polystyrene), 500 nL of compound was dispensed, in duplicate, and serially titrated 2-fold using an Echo 550 acoustic liquid dispenser (Labcyte Inc.). […] As a solvent control, 500 nL of DMSO was applied to wells that contained no compound. Using a multichannel pipette, 50 μL of the prepared bacterial inoculum was applied to each well. To enable background correction post-incubation, the OD600 nm was measured (Biotek Synergy Neo2 microplate reader) prior to incubation. The plates were incubated at 37° C. with aeration at 900 rpm for 18 h. The plates were equilibrated to room temperature and the OD600 nm measured using a BioTek Synergy Neo2 microplate reader. Data was analyzed in both Prism (GraphPad, Version 9.2.0) and Microsoft Excel (Version 16.53). Raw data were input into Microsoft Excel and the pre-incubation OD600 nm measurements were subtracted from the post-incubation OD600 nm measurements. These corrected measurements were input into Prism 9 as a grouped analysis. […] All other MIC values were adjusted accordingly and visualized using the single-color scale grouped heat map function. Identification of compound chemical properties was achieved using DataWarrior (Version 5.5.0). Using PubChem, the SMILES chemical notation for each compound was obtained and compiled in Microsoft Excel. The resulting spreadsheet was input into DataWarrior and properties were calculated from the compound chemical structures.

Experiment [2] concerns EKO-35 araC::mdtEF Pore. The experiment is described as above. Particulars: Escherichia coli; Table 14A; porinated; technical duplicate; read-out: Minimum inhibitory concentration, EKO-35 araC::mdtEF Pore. As for the experimental part:
as §1, §2, §3

In experiment [3] the test system is EKO-35 araC::acrBD408A Pore. Described as above. Particulars: Escherichia coli; EKO-35 araC::acrBD408A Pore; technical duplicate; read-out: Minimum inhibitory concentration. As to the method:
as §1, §2, §3

Experiment [4] relates to EKO-35 araC::mexCD Pore. The experiment is described as above. Particulars: Escherichia coli; EKO-35 araC::mexCD Pore; technical duplicate; read-out: Minimum inhibitory concentration. As for the experimental part: as §1, §2, §3
For experiment [5], the system named is EKO-35 araC::mdtBC Pore. The description is as above. Particulars: Escherichia coli; EKO-35 araC::mdtBC Pore; technical duplicate; read-out: Minimum inhibitory concentration. As to the method:
as §1, §2, §3

Experiment [6] deals with EKO-35 araC::acrEF Pore. The experiment is described as above. Conditions: Escherichia coli; Table 14A; porinated; technical duplicate; read-out: Minimum inhibitory concentration, EKO-35 araC::acrEF Pore. As for the experimental part: as §1, §2, §3
Experiment [7] concerns EKO-35 araC::emrKY Pore. The description is as above. Conditions: Escherichia coli; EKO-35 araC::emrKY Pore; technical duplicate; read-out: Minimum inhibitory concentration. As for the experimental part: as §1, §2, §3
Experiment [8] deals with EKO-35 araC::acrD Pore. The experiment is described as above. Conditions: Escherichia coli; Table 14A; porinated; technical duplicate; read-out: Minimum inhibitory concentration, EKO-35 araC::acrD Pore. As to the method: as §1, §2, §3
The subject of experiment [9] is EKO-35 araC::macAB Pore. The description is as above. Particulars: Escherichia coli; EKO-35 araC::macAB Pore; technical duplicate; read-out: Minimum inhibitory concentration. As for the experimental part: as §1, §2, §3
The test system of experiment [10] is EKO-35 araC::mdtBC. Nature of the experiment: MIC susceptibility profiling, efflux platform. Particulars: Escherichia coli; Table 13B; non-porinated; technical duplicate; read-out: Minimum Inhibitory Concentration, EKO-35 araC::mdtBC. As to the method: as §2, §3
For experiment [11], the system named is EKO-35 araC::mdtEF. Nature of the experiment: MIC susceptibility profiling, efflux platform. Conditions: Escherichia coli; Table 13A; non-porinated; technical duplicate; read-out: Minimum Inhibitory Concentration, EKO-35 araC::mdtEF. As to the method: as §2, §3
The test system of experiment [12] is wild-type (WT) K-12-Pore. Nature of the experiment: microbe, parasite or virus in culture. Conditions: Escherichia coli, technical duplicate. As to the method: as §1, §2, §3
Experiment [13] concerns ΔtolC-Pore. The experiment is described as follows: microbe, parasite or virus in culture. Particulars: for MIC: Escherichia coli, 18 h, read-out: Minimum inhibitory concentration, ΔtolC-Pore; for Minimum inhibitory concentration (MIC), Pore ΔtolC: Table 10, with pore, technical duplicate. As to the method:
as §1, §2, §3

Experiment [14] deals with EKO-35-Pore. Nature of the experiment: MIC susceptibility profiling, porinated strain. Conditions: for MIC: Escherichia coli, technical duplicate. As for the experimental part: as §1, §2, §3
In experiment [15] the test system is E. coli ΔtolC. Nature of the experiment: microbe, parasite or virus in culture. Conditions: for MIC: Escherichia coli, 18 h, read-out: Minimum Inhibitory Concentration, ΔtolC; for Minimum inhibitory concentration (MIC), ΔtolC: Table 10, without pore, technical duplicate. As to the method:
as §2, §3

The subject of experiment [16] is wild-type E. coli K-12 str. BW25113. Nature of the experiment: microbe, parasite or virus in culture. Particulars: Escherichia coli, BW25113, technical duplicate. As to the method:
as §2, §3

For experiment [17], the system named is E. coli EKO-35. The experiment is described as follows: microbe, parasite or virus in culture. Particulars: for MIC: Escherichia coli, EKO35, technical duplicate. As for the experimental part: as §2, §3
Experiment [18] deals with EKO-35 araC::acrB Pore. The experiment is described as follows: MIC susceptibility profiling, porinated efflux platform. Particulars: Escherichia coli; Table 14A; porinated; technical duplicate; read-out: Minimum inhibitory concentration, EKO-35 araC::acrB Pore. As for the experimental part: as §1, §2, §3
Setting [19] is: Table 10, with pore, read-out: Minimum inhibitory concentration (MIC), Pore K-12.
[20] abbreviates: Table 14A, porinated, read-out: Minimum inhibitory concentration, K-12 (WT)-Pore.
[21] abbreviates: Table 10, with pore, read-out: Minimum inhibitory concentration (MIC), Pore EKO-35.
The mark [22] stands for this setting: Table 14A, porinated, read-out: Minimum inhibitory concentration, EKO-35-Pore.
The mark [23] stands for this setting: Table 10, without pore, read-out: Minimum inhibitory concentration (MIC), K-12.
Where [24] appears, read: Table 13A, non-porinated, read-out: Minimum Inhibitory Concentration, K-12.
Setting [25] is: Table 10, without pore, read-out: Minimum inhibitory concentration (MIC), EKO-35.
Setting [26] is: Table 13A, non-porinated, read-out: Minimum Inhibitory Concentration, EKO-35.

The structures appear in SMILES notation. Where two headings read alike, the source gives them in different places.

On to `CC[C@H]1OC(=O)[C@H](C)[C@@H](O[C@H]2C[C@@](C)(OC)[C@@H](O)[C@H](C)O2)[C@H](C)[C@@H](O[C@@H]2O[C@H](C)C[C@H](N(C)C)[C@H]2O)[C@](C)(O)C[C@@H](C)C(=O)[C@H](C)[C@@H](O)[C@]1(C)O` [erythromycin], for which the MIC in [1] amounted to 0.195 µg/mL; in experiment [2], 1.56 µg/mL; in experiment [3], 0.098 µg/mL; in experiment [4], 1.56 µg/mL; in experiment [5] it was 0.195 µg/mL; in experiment [6], 1.56 µg/mL. Besides, the MIC in experiment [7] was 0.195 µg/mL; in experiment [8], 0.195 µg/mL; in [9], 0.781 µg/mL; in experiment [10], 3.12 µg/mL; in experiment [11], 50 µg/mL; in experiment [12] (setting [19]) it was 6.25 µg/mL. Further, the MIC in experiment [12] (setting [20]) is 6.25 µg/mL; in experiment [13], 0.195 µg/mL; in [14] (setting [21]) it was 0.195 µg/mL; in experiment [14] (setting [22]), 0.195 µg/mL; in experiment [15], 3.12 µg/mL; in experiment [16] (setting [23]), 100 µg/mL. The MIC came out at 100 µg/mL in [16] (setting [24]), 3.12 µg/mL in experiment [17] (setting [25]) and 3.12 µg/mL in experiment [17] (setting [26]). For the same molecule, the “Minimum inhibitory concentration (MIC), Pore ΔtolC” value in experiment [13] came to 0.195 µg/mL. Moreover, the “Minimum inhibitory concentration (MIC), ΔtolC” value in experiment [15] was 3.125 µg/mL.
`CO[C@H]1/C=C/O[C@@]2(C)Oc3c(C)c(O)c4c(O)c(c(/C=N/N5CCN(C)CC5)c(O)c4c3C2=O)NC(=O)/C(C)=C\C=C\[C@H](C)[C@H](O)[C@@H](C)[C@@H](O)[C@@H](C)[C@H](OC(C)=O)[C@@H]1C` [rifampicin]: the MIC in [1] came to 0.195 µg/mL; in experiment [2], 0.391 µg/mL; in experiment [3] it was 0.195 µg/mL; in [4], 0.391 µg/mL; in experiment [18] it was 1.56 µg/mL; in [6], 0.391 µg/mL. Also, the MIC stood at 0.391 µg/mL in experiment [7]; 0.391 µg/mL in [8]; 0.391 µg/mL in experiment [9]; 6.25 µg/mL in experiment [10]; 6.25 µg/mL in [11]; 0.781 µg/mL in experiment [12] (setting [19]). The MIC in experiment [12] (setting [20]) is 0.781 µg/mL; in experiment [13] it was 0.391 µg/mL; in [14] (setting [21]), 0.391 µg/mL; in experiment [14] (setting [22]), 0.391 µg/mL; in [15], 6.25 µg/mL; in [16] (setting [23]), 12.5 µg/mL. For the same molecule, the values for the MIC in [16] (setting [24]), in [17] (setting [25]) and in [17] (setting [26]) were 12.5 µg/mL, 6.25 µg/mL and 6.25 µg/mL, respectively. Also, the “Minimum inhibitory concentration (MIC), Pore ΔtolC” value in experiment [13] was 0.391 µg/mL. Moreover, the “Fold changes of MICs” value in experiment [14] (EKO-35-Pore compared to EKO-35-Pore (reference)) turned out to be 1 fold. Besides, in experiment [15], the “Minimum inhibitory concentration (MIC), ΔtolC” value was 6.25 µg/mL. In addition, the “Fold change of MICs” value in experiment [17] (EKO-35 compared to EKO-35 (reference)) was determined as 1 fold.
